{"source": "patent US11938177B2", "about": "“Peptide vaccine formulations and use thereof for inducing an immune response” (The United States of America, as represented by the …, priority 2016, dated 2024)", "key": {"[1]": {"test": "Solubility of synthetic long peptides in aqueous buffer (PBS pH 7.4, bright field microscopy)", "format": "physicochemical", "procedure": "FIGS. 2A-2E: Impact of adjuvant and the composition of amino acids flanking minimal epitopes on CD8 T cell responses induced by synthetic long peptide vaccines. (2A and 2B) Synthetic long peptides delivering the minimal CTL epitope from Ovalbumin (OVA257-264: SIINFEKL, SEQ ID NO: 1) were prepared with either hydrophobic or hydrophilic flanking sequences to provide insoluble (LSI, 1) or soluble (LSS, 3) peptides alone or linked to a TLR-7/8a through a C-terminal azide to yield a LSI-7/8a (2) and LSS-7/8a (4). Bright field microscopy images are shown of […] at 0.1 mg/mL in PBS at pH 7.4. (2C) The TLR-7/8a adjuvant was delivered as either a small molecule (7/8a, 5) or as a particle (PP-7/8a, 6) with the peptide antigens. (2D and 2E) Long peptides (4 nmol) alone or admixed with or covalently attached to adjuvant (4 nmol) were subcutaneously administered into the hind footpads of mice at days 0 and 14. At day 28, tetramer+ CD8 T cell responses were evaluated from whole blood of mice (n=5-25).\nFIGS. 4A-4G: Influence of neoantigen flanking sequences on long peptide morphology and CD8 T cell immunity. (4A) The sequences flanking two minimal CD8 T cell neoantigen epitopes, Reps1 (7) and Irgq (9), derived from murine MC38 […] were exchanged to create two chimeric synthetic long peptides, Reps1 FS (8) and Irgq FS (10). Bright field microscopy images are shown for peptides 7-10 at 0.1 mg/mL in PBS at pH 7.4. (4B-4G) The synthetic long peptide-based neoantigens (7-10) (4 nmol) were admixed with adjuvant (4 nmol) and subcutaneously administered into the hind footpads of C57BL/6 mice at days 0 and 14 and on day 28 whole blood was assessed for the percent of total CD8 T cells that were dextramer^+ for Reps1 (4B) and Irgq (4C); the percent of total CD8 T cells that were IFNγ following stimulation with either Reps1 (4D) or Irgq (4E); or, the percent of total CD4 T cells that were IFNγ following stimulation with either Reps1 (4F) or Irgq (4G). Data on log scale are reported as geometric mean with 95% confidence interval (CI). Data are representative of two or more independent experiments. Student's T test was used for comparison of 2 groups; ns, not significant (P>0.05); *, P<0.05; **, P<0.01.\nSoluble: Capable of becoming molecularly or ionically dispersed in a solvent to form a homogeneous solution. […] Solubility can be determined visually or using spectroscopic techniques. Turbidity measurements allow for solubility determination indirectly by using a spectrophotometer to measure absorbance in the visible spectrum, typically between 300-500 nm; insoluble materials scatter light that reduces transmittance, leading to increases in measured absorbance (OD). Herein, absorbance measurements at 490 nm were used to assess solubility. […]"}, "[2]": {"conditions": "side chain group (epsilon amine; gamma carboxylic acid); cited from earlier work"}}, "note": "Square brackets hold non-standard residues; d marks the D form. Ends that are not written are not given here. Peptide text beside a SMILES is read from it. Lys(N3) = [N-]=[N+]=NCCCC[C@H](N)C(=O)O"}
{"compound": "CC[C@H](C)[C@H](NC(=O)[C@@H](NC(=O)[C@@H](N)CO)[C@@H](C)CC)C(=O)N[C@@H](CC(N)=O)C(=O)N[C@@H](Cc1ccccc1)C(=O)N[C@@H](CCC(=O)O)C(=O)N[C@@H](CCCCN)C(=O)N[C@@H](CC(C)C)C(=O)N[C@H](C(=O)N[C@@H](Cc1ccccc1)C(=O)N1CCC[C@H]1C(=O)N[C@@H](CCCNC(=N)N)C(=O)N[C@@H](CO)C(=O)N1CCC[C@H]1C(=O)N[C@H](C(=O)N[C@H](C(=O)N[C@@H](Cc1ccccc1)C(=O)N[C@@H](Cc1ccc(O)cc1)C(=O)N[C@@H](CC(N)=O)C(=O)N[C@H](C(=O)N1CCC[C@H]1C(=O)N1CCC[C@H]1C(=O)N[C@@H](CCSC)C(=O)N1CCC[C@H]1C(=O)N[C@@H](CC(C)C)C(=O)N1CCC[C@H]1C(=O)N1CCC[C@H]1C(=O)N[C@@H](CO)C(=O)N[C@@H](CCC(N)=O)C(=O)N[C@@H](CC(C)C)C(=O)N[C@@H](CCCCN=[N+]=[N-])C(=O)O)[C@@H](C)CC)C(C)C)[C@@H](C)O)C(C)C", "note": "[LSI]", "values": [{"measurement": "solubility in aqueous buffers", "setting": "[1]", "value": "insoluble"}]}
{"compound": "KARDETAQLANDVVLGAAPLFVPPAD [Reps1 FS]", "values": [{"measurement": "solubility in aqueous buffers", "setting": "[1]", "value": "water-soluble"}]}
{"compound": "GRVLELFRAAALLNSAVLQIMELCGATR [Irgq FS]", "values": [{"measurement": "solubility in aqueous buffers", "setting": "[1]", "value": "assembled into an aggregate"}]}
{"compound": "NCCCC[C@H](N)C(=O)O", "note": "[Lysine]", "values": [{"measurement": "pKa", "setting": "[2]", "value": "~10.7"}]}
{"compound": "CC[C@H](C)[C@H](NC(=O)[C@@H](NC(=O)[C@@H](N)CO)[C@@H](C)CC)C(=O)N[C@@H](CC(N)=O)C(=O)N[C@@H](Cc1ccccc1)C(=O)N[C@@H](CCC(=O)O)C(=O)N[C@@H](CCCCN)C(=O)N[C@@H](CC(C)C)C(=O)N[C@H](C(=O)N[C@@H](CCCCN)C(=O)N1CCC[C@H]1C(=O)N[C@@H](CCCNC(=N)N)C(=O)N[C@@H](CO)C(=O)N1CCC[C@H]1C(=O)N[C@H](C(=O)N[C@@H](CCCNC(=N)N)C(=O)N[C@@H](Cc1ccccc1)C(=O)N[C@@H](CC(=O)O)C(=O)N[C@@H](CC(N)=O)C(=O)N[C@@H](CO)C(=O)N[C@@H](CCCCN)C(=O)N1CCC[C@H]1C(=O)N[C@@H](CO)C(=O)N1CCC[C@H]1C(=O)N[C@@H](CCC(=O)O)C(=O)N1CCC[C@H]1C(=O)N[C@@H](CCCCN)C(=O)N[C@@H](CO)C(=O)N[C@@H](CCC(N)=O)C(=O)N[C@@H](CC(=O)O)C(=O)N[C@@H](CCCCN=[N+]=[N-])C(=O)O)[C@@H](C)O)C(C)C", "note": "[LSS] (H-SIINFEKLVKPRSPTRFDNSKPSPEPKSQD[Lys(N3)]-OH)", "values": [{"measurement": "solubility in aqueous buffers", "setting": "[1]", "value": "soluble"}]}
